Measurements reported in PubChem BioAssay (NCI).
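Method: 48-hour compound exposure of cells in 96-well plates, five concentrations, linear interpolation of endpoints. The concentration for 50% growth inhibition is given as GI50. TGI: total growth inhibition.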

Columns and labels:
Experiment in all cases: NCI-60 cell line screen, 48 h
[1] = test system: 786-0 renal
[2] = test system: A498 renal
[3] = test system: A549 NSCLC
[4] = test system: ACHN renal
[5] = test system: BT-549 breast
[6] = test system: CAKI-1 renal
[7] = test system: CCRF-CEM leukemia
[8] = test system: DU-145 prostate
[9] = test system: EKVX NSCLC
[10] = test system: HCC-2998 colon
[11] = test system: HCT-116 colon
[12] = test system: HCT-15 colon
[13] = test system: HL-60(TB) leukemia
[14] = test system: HOP-62 NSCLC
[15] = test system: HS 578T breast
[16] = test system: HT29 colon
[17] = test system: IGROV1 ovarian
[18] = test system: K-562 leukemia
[19] = test system: KM12 colon
[20] = test system: M14 melanoma
[21] = test system: MALME-3M melanoma
[22] = test system: MCF7 breast
[23] = test system: MDA-MB-231 breast
[24] = test system: MDA-MB-435
[25] = test system: MOLT-4 leukemia
[26] = test system: NCI-H226 lung
[27] = test system: NCI-H23 lung
[28] = test system: NCI-H460 lung
[29] = test system: NCI-H522 lung
[30] = test system: NCI/ADR-RES ovarian
[31] = test system: OVCAR-8 ovarian
[32] = test system: PC-3 prostate
[33] = test system: RPMI-8226 leukemia
[34] = test system: RXF 393 renal
[35] = test system: SF-268 CNS
[36] = test system: SF-295 CNS
[37] = test system: SF-539 CNS
[38] = test system: SK-MEL-2 melanoma
[39] = test system: SK-MEL-28 melanoma
[40] = test system: SK-MEL-5 melanoma
[41] = test system: SK-OV-3 ovarian
[42] = test system: SN12C renal
[43] = test system: SNB-19 CNS
[44] = test system: SNB-75 CNS
[45] = test system: SR leukemia
[46] = test system: SW-620 colon
[47] = test system: T-47D breast
[48] = test system: TK-10 renal
[49] = test system: U251 CNS
[50] = test system: UACC-257 melanoma
[51] = test system: UACC-62 melanoma
[52] = test system: UO-31 renal

Compound NC(=O)c1c(NC(=O)c2ccccc2C(F)(F)F)sc2c1CCC(=O)C2 has a GI50 [1] of 4.29 µM, a TGI [1] of over 100 µM and a GI50 [2] of 9.93 µM. It also gave a TGI [2] of 40.3 µM, a GI50 [3] of 3.72 µM and a TGI [3] of over 100 µM. The GI50 [4] was 1.01 µM, the TGI [4] was 2.66 µM and the GI50 [5] was 0.947 µM. The TGI [5] was 76.5 µM, the GI50 [6] was 1.39 µM and the TGI [6] was 3.05 µM. It also gave a GI50 [7] of 0.429 µM, a TGI [7] of over 100 µM and a GI50 [8] of 4.54 µM. The TGI [8] was over 100 µM, the GI50 [9] was 2.81 µM and the TGI [9] was 12.1 µM. It also gave a GI50 [10] of 2.88 µM, a TGI [10] of 12.3 µM and a GI50 [11] of 0.493 µM. For the same compound, the TGI [11] was 8.14 µM, the GI50 [12] was 0.493 µM and the TGI [12] was 2.07 µM. The GI50 [13] was 1.1 µM, the TGI [13] was 7.37 µM and the GI50 [14] was 3.97 µM. The TGI [14] was over 100 µM, the GI50 [15] was 3.04 µM and the TGI [15] was over 100 µM. It also gave a GI50 [16] of 1.97 µM, a TGI [16] of 6.65 µM and a GI50 [17] of 2.46 µM. For the same compound, the TGI [17] was 9.48 µM, the GI50 [18] was 0.412 µM and the TGI [18] was over 100 µM. It also gave a GI50 [19] of 3.66 µM, a TGI [19] of 14.6 µM and a GI50 [20] of 2.76 µM. It also gave a TGI [20] of 19.9 µM, a GI50 [21] of 2 µM and a TGI [21] of 5.25 µM. The GI50 [22] was 2.24 µM, the TGI [22] was 9.87 µM and the GI50 [23] was 1.95 µM. For the same compound, the TGI [23] was 4.3 µM, the GI50 [24] was 2.94 µM and the TGI [24] was 8.7 µM. It also gave a GI50 [25] of 2.02 µM, a TGI [25] of 22.3 µM and a GI50 [26] of 1.97 µM. For the same compound, the TGI [26] was 4.53 µM, the GI50 [27] was 1.34 µM and the TGI [27] was 5.63 µM. The GI50 [28] was 3.52 µM, the TGI [28] was 16 µM and the GI50 [29] was 0.391 µM. For the same compound, the TGI [29] was 1.92 µM, the GI50 [30] was 2.33 µM and the TGI [30] was 18.3 µM. For the same compound, the GI50 [31] was 2.6 µM, the TGI [31] was over 100 µM and the GI50 [32] was 0.307 µM. The TGI [32] was 4.43 µM, the GI50 [33] was 0.36 µM and the TGI [33] was over 100 µM. It also gave a GI50 [34] of 1.37 µM, a TGI [34] of 3.83 µM and a GI50 [35] of 3.6 µM. For the same compound, the TGI [35] was over 100 µM, the GI50 [36] was 2.55 µM and the TGI [36] was 7.71 µM. It also gave a GI50 [37] of 0.605 µM, a TGI [37] of 2.09 µM and a GI50 [38] of 2.5 µM. For the same compound, the TGI [38] was 6.84 µM, the GI50 [39] was 1.89 µM and the TGI [39] was 5.5 µM. The GI50 [40] was 1.78 µM, the TGI [40] was 3.45 µM and the GI50 [41] was 3.47 µM. For the same compound, the TGI [41] was over 100 µM, the GI50 [42] was 2.59 µM and the TGI [42] was 12.6 µM. The GI50 [43] was 3.74 µM, the TGI [43] was over 100 µM and the GI50 [44] was 1.95 µM. For the same compound, the TGI [44] was 8.2 µM, the GI50 [45] was 0.466 µM and the TGI [45] was over 100 µM. It also gave a GI50 [46] of 0.402 µM, a TGI [46] of 13.8 µM and a GI50 [47] of 0.492 µM. For the same compound, the TGI [47] was 5.71 µM, the GI50 [48] was 3.2 µM and the TGI [48] was over 100 µM. It also gave a GI50 [49] of 0.99 µM, a TGI [49] of 19.1 µM and a GI50 [50] of 2.48 µM. It also gave a TGI [50] of 7.38 µM, a GI50 [51] of 1.29 µM and a TGI [51] of 3.19 µM. The GI50 [52] was 1.12 µM and the TGI [52] was 2.33 µM.
